# Key:
# JAK1 = target: T1, JAK1 (Homo sapiens, UniProt P23458); experiment: JAK1 microfluidic kinase assay (Caliper EZ Reader II, FAM labeled peptide substrate); format: biochemical
# T1 construct: purchased Carna Biosciences
# Procedure, shortened: (§1)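 Compounds, serially diluted 3-fold from 5 μM, were preincubated 10 min with enzyme at ambient temperature before reaction in HEPES/Brij35/MgCl2/DTT buffer (1% DMSO final), tuned to 10% peptide conversion. After EDTA stop, FAM-peptide phosphorylation was measured by Caliper EZ Reader II; IC50 fitted from percent-inhibition curves.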
# JAK2 = target: T2, JAK2 (Homo sapiens, UniProt O60674); experiment: JAK2 microfluidic kinase assay (Caliper EZ Reader II, FAM labeled peptide substrate); format: biochemical
# T2 construct: purchased Carna Biosciences
# T2 sequence (O60674 whole entry): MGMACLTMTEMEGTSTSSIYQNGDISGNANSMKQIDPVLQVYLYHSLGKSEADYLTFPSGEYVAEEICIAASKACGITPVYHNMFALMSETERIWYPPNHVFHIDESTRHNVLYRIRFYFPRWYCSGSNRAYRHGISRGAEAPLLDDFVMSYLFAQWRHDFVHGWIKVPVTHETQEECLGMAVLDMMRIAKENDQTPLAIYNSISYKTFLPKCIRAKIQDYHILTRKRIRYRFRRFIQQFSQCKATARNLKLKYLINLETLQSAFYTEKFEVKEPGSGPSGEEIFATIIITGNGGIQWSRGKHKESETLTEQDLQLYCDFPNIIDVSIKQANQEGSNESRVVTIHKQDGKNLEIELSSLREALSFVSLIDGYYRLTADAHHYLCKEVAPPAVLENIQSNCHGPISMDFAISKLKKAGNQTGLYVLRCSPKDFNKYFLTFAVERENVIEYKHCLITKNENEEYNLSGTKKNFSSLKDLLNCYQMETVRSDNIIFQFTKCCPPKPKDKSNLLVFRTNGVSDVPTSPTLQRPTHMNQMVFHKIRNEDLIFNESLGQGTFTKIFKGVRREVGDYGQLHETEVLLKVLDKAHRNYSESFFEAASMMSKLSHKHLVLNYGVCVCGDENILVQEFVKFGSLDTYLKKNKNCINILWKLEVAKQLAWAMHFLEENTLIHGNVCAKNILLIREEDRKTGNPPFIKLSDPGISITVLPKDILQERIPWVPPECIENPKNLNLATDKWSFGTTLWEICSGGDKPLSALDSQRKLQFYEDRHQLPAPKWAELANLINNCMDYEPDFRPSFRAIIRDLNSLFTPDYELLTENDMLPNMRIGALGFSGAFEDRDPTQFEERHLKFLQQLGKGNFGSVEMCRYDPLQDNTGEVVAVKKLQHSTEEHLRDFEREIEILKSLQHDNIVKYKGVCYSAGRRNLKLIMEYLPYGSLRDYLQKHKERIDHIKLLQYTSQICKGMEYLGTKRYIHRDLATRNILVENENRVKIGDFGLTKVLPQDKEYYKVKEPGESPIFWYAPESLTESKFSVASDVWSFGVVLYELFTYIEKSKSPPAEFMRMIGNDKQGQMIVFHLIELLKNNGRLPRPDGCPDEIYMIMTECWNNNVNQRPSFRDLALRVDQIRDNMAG
# Procedure, shortened: as §1
# JAK2V617F = target: T3, JAK2V617F (Homo sapiens, UniProt O60674, V617F); experiment: JAK2V617F microfluidic kinase assay (Caliper EZ Reader II, FAM labeled peptide substrate); format: biochemical; settings: JAK2V617F 2.5 nM, 1 mM ATP
# T3 construct: purchased Carna Biosciences
# T3 sequence (O60674 whole entry V617F): as the sequence (O60674 whole entry) above, with V617F counted along it
# Procedure, shortened: as §1
# TYK2 = target: T4, TYK2 (Homo sapiens, UniProt P29597); experiment: TYK2 microfluidic kinase assay (Caliper EZ Reader II, FAM labeled peptide substrate); format: biochemical; settings: IC50 TYK2 ([…]) (1 mM ATP), TYK2 […], 1 mM ATP
# T4 construct: purchased Carna Biosciences
# T4 sequence (P29597 whole entry): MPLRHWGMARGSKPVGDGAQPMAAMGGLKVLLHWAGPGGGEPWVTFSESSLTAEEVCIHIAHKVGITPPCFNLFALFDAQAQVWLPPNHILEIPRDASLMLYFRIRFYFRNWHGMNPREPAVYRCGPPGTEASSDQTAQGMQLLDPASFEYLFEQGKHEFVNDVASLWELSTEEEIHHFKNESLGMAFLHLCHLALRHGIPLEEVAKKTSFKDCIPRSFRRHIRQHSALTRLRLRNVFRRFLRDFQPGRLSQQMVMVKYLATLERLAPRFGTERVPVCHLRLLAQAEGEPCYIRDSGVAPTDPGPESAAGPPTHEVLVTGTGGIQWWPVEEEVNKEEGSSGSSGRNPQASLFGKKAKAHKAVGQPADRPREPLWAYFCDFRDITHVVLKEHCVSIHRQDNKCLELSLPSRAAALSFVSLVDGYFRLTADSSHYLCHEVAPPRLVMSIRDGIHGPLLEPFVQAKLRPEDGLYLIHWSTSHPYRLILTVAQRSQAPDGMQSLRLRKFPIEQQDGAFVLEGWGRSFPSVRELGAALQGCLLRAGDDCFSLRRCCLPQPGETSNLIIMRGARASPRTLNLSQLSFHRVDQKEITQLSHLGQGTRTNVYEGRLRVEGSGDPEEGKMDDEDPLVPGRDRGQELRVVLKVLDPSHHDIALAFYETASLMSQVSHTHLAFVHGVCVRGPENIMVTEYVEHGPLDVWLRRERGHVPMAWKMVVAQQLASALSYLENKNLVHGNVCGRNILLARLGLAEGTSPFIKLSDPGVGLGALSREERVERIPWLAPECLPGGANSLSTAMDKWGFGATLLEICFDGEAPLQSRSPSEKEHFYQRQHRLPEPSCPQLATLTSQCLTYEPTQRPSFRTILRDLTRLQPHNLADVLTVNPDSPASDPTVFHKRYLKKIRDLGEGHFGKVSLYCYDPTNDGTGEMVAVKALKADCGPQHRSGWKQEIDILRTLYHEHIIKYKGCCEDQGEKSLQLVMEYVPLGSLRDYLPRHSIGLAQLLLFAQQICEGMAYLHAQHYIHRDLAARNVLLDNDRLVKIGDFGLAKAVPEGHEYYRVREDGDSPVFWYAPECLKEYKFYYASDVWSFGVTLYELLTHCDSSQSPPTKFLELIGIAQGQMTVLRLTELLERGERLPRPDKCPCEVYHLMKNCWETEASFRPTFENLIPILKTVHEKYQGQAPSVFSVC
# Procedure, shortened: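 Kinase activity was measured in 50 mM HEPES, 0.01% Brij35, 10 mM MgCl2, 2 mM DTT with enzyme set for 10% peptide conversion. Compounds (3-fold dilutions from 5 μM top, 1% DMSO) were pre-incubated 10 min at ambient temperature. Reaction times: JAK1 120 min, JAK2 20 min, JAK2V617F 30 min, TYK2 10 min. EDTA stop.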
# [1] = Liver microsomes study, Phase I stability (RLM); format: in vitro ADME, rat; settings: pH 7.4; rat liver microsomes 0.5 mg/mL, 1 μM test article; read-out: RLM Clint
# Method: Commercially available liver microsomes (MsLM vendor: XENOTECH; RLM, DLM, MkL, HLM vendor: Corning) were used for study the Phase I stability of test articles. […] The reaction was initiated by addition of 80 μL of the NADPH regenerating system to 320 µL of each incubation mixture per time point. […] The 0-minute samples were prepared by addition of an 80 μL aliquot of each incubation mixture to 400 μL quench reagent to precipitate proteins. And then a 20 μL aliquot of the NADPH regenerating system was added. At 10, 30, and 90 minutes, the reaction will be stopped by the addition of cold acetonitrile solution containing tolbutamide and propanolol served as internal standard. The samples taken at all time points were centrifuged at 4000×g for 15 minutes. 80 μL of supernatant are taken into 96-well assay plates pre-added with 160 μL ultrapure water, and then analyzed by LC/MS/MS(Shimadzu LC30AD & API4000/API5000)). Concentrations of test articles, control compounds in the samples were determined by using LC/MS/MS) method. Plotting of the chromatograms and peak area integrations are carried out by Analyst (AB Sciex).
# In the determination of the in vitro elimination constant, ke, of the control compounds, the analyte/internal standard peak area ratios will be converted to percentage remaining (% Remaining) with the following equation: […]
# The slope was measured by the natural logarithm of the percentage of the residual compound and time, T½ and CLint were calculated according to the following formulas, V/M was equal to the 1/concentration of protein.
# [2] = Liver microsomes study, Phase I stability (HLM); format: in vitro ADME, human; settings: pH 7.4; human liver microsomes 0.5 mg/mL, 1 μM test article; read-out: HLM Clint
# Procedure, shortened: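 Rat or human liver microsomes were incubated with test article, and reactions started with an NADPH regenerating system. Samples at 0, 10, 30 and 90 minutes were quenched with cold acetonitrile and analyzed by LC/MS/MS. T½ and CLint came from the ln(% remaining) versus time slope, scaled by protein concentration.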
# [3] = Rat pharmacokinetic study (intravenous and oral); format: in vivo; settings: male, plasma, Sprague-Dawley rats, intravenous, 1 mg/kg, solution
# Method: Pharmacokinetic profile of test articles in rodent were evaluated in fasted male ICR mouse and Sprague-Dawley rats. […] Typically, mice were dosed with 2 mg/kg and 10 mg/kg by intravenous injection and oral gavage, respectively. Rats were dosed with 1 mg/kg and 5 mg/kg by intravenous injection and oral gavage, respectively. Beagle dogs were dosed with 1 mg/kg and 5 mg/kg by intravenous injection and oral gavage, respectively. After dosing, blood samples were collected at each time point. For IV injection group, time points were set at 5, 15, 30 min, and then 1, 2, 4, 8 and 24 hours after dosing. For oral gavage group, timepoints were set at 15, 30 m, and then 1, 2, 4, 8, and 24 hours. Blood was collected into appropriately labeled tubes containing K2EDTA as the anticoagulant. Plasma was obtained within 1 hours of blood collection by centrifugation at 8000×g and 4° C. for 6 minutes, and then stored at −20° C. until analyzed by LCMS/MS for quantification.
# CYP1A2 = target: T5, CYP1A2 (Homo sapiens, UniProt P05177); experiment: CYPs inhibition in pooled human liver microsomes, probe substrate Phenacetin; format: in vitro ADME
# T5 construct: 0.2 mg/mL human liver microsomes was pre-incubated in 180 μL reaction mixture; from tissue; host or cells: pooled human liver microsomes
# T5 sequence (P05177 1-516): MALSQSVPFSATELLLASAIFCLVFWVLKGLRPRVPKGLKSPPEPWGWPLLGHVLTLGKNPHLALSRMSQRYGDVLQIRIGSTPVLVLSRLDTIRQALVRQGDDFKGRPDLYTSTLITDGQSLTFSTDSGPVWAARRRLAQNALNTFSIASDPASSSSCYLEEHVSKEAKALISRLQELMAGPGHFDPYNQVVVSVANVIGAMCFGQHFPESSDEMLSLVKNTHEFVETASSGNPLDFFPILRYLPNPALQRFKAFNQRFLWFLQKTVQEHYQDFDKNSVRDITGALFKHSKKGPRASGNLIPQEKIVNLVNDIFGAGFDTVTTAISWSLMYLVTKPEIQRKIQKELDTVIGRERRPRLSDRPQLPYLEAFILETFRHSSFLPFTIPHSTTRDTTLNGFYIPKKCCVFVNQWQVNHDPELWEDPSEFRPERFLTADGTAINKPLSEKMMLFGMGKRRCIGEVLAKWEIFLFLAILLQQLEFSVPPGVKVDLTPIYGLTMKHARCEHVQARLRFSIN
# Method: (§2) The inhibitory potential of test articles in pooled human liver microsomes was evaluated by the method using a cocktail of CYP substrates. […] For the negative control well, the test articles was replaced with 20 μL reaction buffer. After 10 min of pre-incubation at 37° C., 20 μL 10 mM NADPH cofactor was added to the pre-reaction mixtures. After another 10 min incubation, the reaction was stopped by adding 400 μL of ice cold acetonitrile solution containing tolbutamide and labetalol served as internal standards. The incubation mixtures were centrifuged at 4000×g for 20 min, and then the supernatants were analyzed by LC-MS/MS after dilution. SigmaPlot was applied to plot % control activity versus the test compound concentrations, and for non-linear regression analysis of the data. IC50 values of test articles were determined using 3-parameter logistic equation.
# CYP2C9 = target: T6, CYP2C9 (Homo sapiens, UniProt P11712); experiment: CYPs inhibition in pooled human liver microsomes, probe substrate Diclofenac; format: in vitro ADME
# T6 construct: 0.2 mg/mL human liver microsomes was pre-incubated in 180 μL reaction mixture; from tissue; host or cells: pooled human liver microsomes
# Method: as §2
# CYP2C19 = target: T7, CYP2C19 (Homo sapiens, UniProt P33261); experiment: CYPs inhibition in pooled human liver microsomes, probe substrate S-mephenytoin; format: in vitro ADME
# T7 construct: 0.2 mg/mL human liver microsomes was pre-incubated in 180 μL reaction mixture; from tissue; host or cells: pooled human liver microsomes
# T7 sequence (P33261 whole entry): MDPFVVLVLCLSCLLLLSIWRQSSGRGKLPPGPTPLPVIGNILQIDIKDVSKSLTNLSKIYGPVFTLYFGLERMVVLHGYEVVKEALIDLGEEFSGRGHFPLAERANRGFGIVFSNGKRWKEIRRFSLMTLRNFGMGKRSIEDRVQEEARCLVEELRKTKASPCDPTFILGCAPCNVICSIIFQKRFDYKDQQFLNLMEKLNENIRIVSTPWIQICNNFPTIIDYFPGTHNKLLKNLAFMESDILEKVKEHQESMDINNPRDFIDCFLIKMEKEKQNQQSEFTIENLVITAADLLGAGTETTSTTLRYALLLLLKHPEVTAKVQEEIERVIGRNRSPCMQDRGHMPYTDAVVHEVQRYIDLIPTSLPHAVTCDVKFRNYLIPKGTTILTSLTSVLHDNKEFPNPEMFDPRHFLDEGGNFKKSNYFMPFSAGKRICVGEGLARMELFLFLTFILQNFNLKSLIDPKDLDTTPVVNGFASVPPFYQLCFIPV
# Method: as §2
# CYP2D6 = target: T8, CYP2D6 (Homo sapiens, UniProt P10635); experiment: CYPs inhibition in pooled human liver microsomes, probe substrate Dextromethorphan; format: in vitro ADME
# T8 construct: 0.2 mg/mL human liver microsomes was pre-incubated in 180 μL reaction mixture; from tissue; host or cells: pooled human liver microsomes
# T8 sequence (P10635 whole entry): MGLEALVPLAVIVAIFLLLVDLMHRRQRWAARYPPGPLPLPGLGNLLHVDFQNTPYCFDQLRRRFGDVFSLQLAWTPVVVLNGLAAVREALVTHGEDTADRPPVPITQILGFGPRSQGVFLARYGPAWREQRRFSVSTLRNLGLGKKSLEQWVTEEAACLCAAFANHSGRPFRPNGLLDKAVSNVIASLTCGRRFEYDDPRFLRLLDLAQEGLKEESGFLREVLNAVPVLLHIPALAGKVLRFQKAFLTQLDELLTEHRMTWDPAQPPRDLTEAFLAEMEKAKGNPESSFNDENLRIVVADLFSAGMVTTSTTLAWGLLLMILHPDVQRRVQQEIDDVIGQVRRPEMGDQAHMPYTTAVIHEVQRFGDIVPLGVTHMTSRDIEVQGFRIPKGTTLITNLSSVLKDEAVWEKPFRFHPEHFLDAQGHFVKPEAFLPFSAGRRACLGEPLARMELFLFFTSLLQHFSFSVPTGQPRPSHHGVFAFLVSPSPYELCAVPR
# Method: as §2
# CYP3A4 = target: T9, CYP3A4 (Homo sapiens, UniProt P08684); experiment: CYPs inhibition in pooled human liver microsomes, probe substrate Midazolam; format: in vitro ADME
# T9 construct: 0.2 mg/mL human liver microsomes was pre-incubated in 180 μL reaction mixture; from tissue; host or cells: pooled human liver microsomes
# T9 sequence (P08684 whole entry): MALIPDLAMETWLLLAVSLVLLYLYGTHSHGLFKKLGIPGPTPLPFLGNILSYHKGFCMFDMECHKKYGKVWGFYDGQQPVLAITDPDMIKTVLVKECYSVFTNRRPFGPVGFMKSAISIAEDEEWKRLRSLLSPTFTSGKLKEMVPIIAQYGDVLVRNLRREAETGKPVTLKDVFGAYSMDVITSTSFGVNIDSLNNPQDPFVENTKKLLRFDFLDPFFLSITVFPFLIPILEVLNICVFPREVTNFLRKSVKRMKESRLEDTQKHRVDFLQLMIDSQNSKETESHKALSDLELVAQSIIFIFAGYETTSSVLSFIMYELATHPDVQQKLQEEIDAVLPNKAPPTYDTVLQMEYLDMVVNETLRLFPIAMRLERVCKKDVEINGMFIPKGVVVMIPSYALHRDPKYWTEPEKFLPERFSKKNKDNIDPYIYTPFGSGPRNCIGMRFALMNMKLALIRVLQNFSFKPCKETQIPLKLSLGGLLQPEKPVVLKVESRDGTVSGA
# Method: as §2
# [4] = IC50 JAK1 (5 nM) (1 m MATP), JAK1 5 nM, 1 mM ATP
# [5] = IC50 JAK2 ([…]) (Km ATP), Km ATP
# [6] = IC50 JAK2 ([…]) (1 mM ATP), 1 mM ATP
# T1 sequence (P23458 whole entry): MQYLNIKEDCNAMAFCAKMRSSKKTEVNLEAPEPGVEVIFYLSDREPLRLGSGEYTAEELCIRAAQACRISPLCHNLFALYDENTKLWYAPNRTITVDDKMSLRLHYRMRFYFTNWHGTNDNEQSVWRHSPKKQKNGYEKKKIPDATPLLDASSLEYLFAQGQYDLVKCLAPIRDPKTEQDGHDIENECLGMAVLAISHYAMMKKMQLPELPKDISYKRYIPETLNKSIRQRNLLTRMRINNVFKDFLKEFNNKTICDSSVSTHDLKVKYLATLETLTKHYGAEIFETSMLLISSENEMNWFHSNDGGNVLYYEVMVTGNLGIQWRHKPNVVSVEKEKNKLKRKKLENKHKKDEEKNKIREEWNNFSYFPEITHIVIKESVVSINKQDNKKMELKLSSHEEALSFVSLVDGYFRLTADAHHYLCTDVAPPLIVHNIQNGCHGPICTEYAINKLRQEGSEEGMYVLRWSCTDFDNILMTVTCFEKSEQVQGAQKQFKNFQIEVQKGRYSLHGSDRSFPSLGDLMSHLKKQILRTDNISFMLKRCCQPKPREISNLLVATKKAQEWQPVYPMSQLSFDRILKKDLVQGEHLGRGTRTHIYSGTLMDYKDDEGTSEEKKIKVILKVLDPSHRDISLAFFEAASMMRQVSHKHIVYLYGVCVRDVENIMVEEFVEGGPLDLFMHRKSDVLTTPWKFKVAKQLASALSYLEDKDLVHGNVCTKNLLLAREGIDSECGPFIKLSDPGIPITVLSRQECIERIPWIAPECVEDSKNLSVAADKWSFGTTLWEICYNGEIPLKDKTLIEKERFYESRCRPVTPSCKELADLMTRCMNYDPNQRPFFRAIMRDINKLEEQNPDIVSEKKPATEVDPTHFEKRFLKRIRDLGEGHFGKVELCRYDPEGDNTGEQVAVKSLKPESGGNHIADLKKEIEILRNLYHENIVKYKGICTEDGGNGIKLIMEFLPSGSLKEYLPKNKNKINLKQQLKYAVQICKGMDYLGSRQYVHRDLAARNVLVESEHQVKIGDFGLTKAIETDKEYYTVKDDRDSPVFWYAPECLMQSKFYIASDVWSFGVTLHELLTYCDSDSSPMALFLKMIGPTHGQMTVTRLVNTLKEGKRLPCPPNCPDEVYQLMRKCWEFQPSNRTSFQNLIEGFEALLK
IC50 (JAK1; [4]) [nM],IC50 (JAK2; [5]) [nM],IC50 (JAK2V617F) [nM],IC50 (TYK2) [nM],microsomal CLint at 1 μM [1] [µL/min/mg],microsomal CLint at 1 μM [2] [µL/min/mg],AUC [3] [ng·h/mL],Vd [3] [L/kg],clearance [3] [mL/min/kg],half-life [3] [min],IC50 (JAK2; [6]) [nM],"IC50 (JAK1; IC50 JAK1 (10 nM) (Km ATP), JAK1 10 nM, Km ATP) [nM]",IC50 (CYP1A2) [nM],IC50 (CYP2C9) [nM],IC50 (CYP2C19) [nM],IC50 (CYP2D6) [nM],IC50 (CYP3A4) [nM],SMILES
10,0.85,53,49.6,23.3,11,504,1.4,33.1,28.8,–,–,–,–,–,–,–,"Cc1cnc(Nc2cnn(C)c2)nc1-c1ccc(C(=O)N[C@@H](C)C#N)cc1 [Example 18, (S)—N-(1-Cyanoethyl)-4-(5-methyl-2-((1-methyl-1H-pyrazol-4-yl)amino)pyrimidin-4-yl)benzamide]"
–,2.73,193,–,–,–,732,0.8,22.9,24,82.2,–,–,–,–,–,–,"Cc1cnc(Nc2cnn(CC(F)(F)F)c2)nc1-c1ccc(C(=O)NCC#N)cc1 [Example 28, N-(Cyanomethyl)-4-(5-methyl-2-((1-(2,2,2-trifluoroethyl)-1H-pyrazol-4-yl)amino)pyrimidin-4-yl)benzamide]"
13.8,< 0.25,2.53,–,53.6,52.8,1970,0.43,8.4,37.8,< 0.25,–,–,–,–,–,–,"Cc1cnc(Nc2cnn(C3CCN(C(=O)C4CC4)CC3)c2)nc1-c1ccc(C(=O)NCC#N)cc1 [Example 24, N-(Cyanomethyl)-4-(2-((1-(1-(cyclopropanecarbonyl)piperidin-4-yl)-1H-pyrazol-4-yl)amino)-5-methylpyrimidin-4-yl)benzamide]"
11.2,0.69,47.5,–,263,5.19,607,0.6,29.8,12,20.9,1.34,–,–,–,–,–,"Cc1cnc(Nc2cnn(C3CC3)c2)nc1-c1ccc(C(=O)NCC#N)cc1 [Example 25, N-(Cyanomethyl)-4-(2-((1-cyclopropyl-1H-pyrazol-4-yl)amino)-5-methylpyrimidin-4-yl)benzamide]"
2.86,–,–,27.3,–,–,–,–,–,–,27.1,–,> 50000,> 50000,> 50000,> 50000,> 50000,"Cc1cnc(Nc2cnn(CCO)c2)nc1-c1ccc(C(=O)N[C@@H](C)C#N)cc1 [Example 200, (S)—N-(1-cyanoethyl)-4-(2-((1-(2-hydroxyethyl)-1H-pyrazol-4-yl)amino)-5-methylpyrimidin-4-yl)benzamide]"
